22 molecules from ChEMBL document CHEMBL1132678, “Imidazole-containing diarylether and diarylsulfone inhibitors of farnesyl-protein transferase” (Bioorg Med Chem Lett, 1999) can be followed below.

SMILES strings stand for the structures. pIC50: −log10 of the molar value. Some results are limits rather than exact numbers.

One may read the pIC50 as −log10 of the IC50, conventionally taken in molar units. Lower therefore signals a large IC50.

In assay [1] the target is Protein farnesyltransferase (Bos taurus, UniProt P29702+P49355). Put plainly: Inhibition of bovine Farnesyltransferase in vitro. Type of assay: protein-complex assay.
In a further assay the test system is Rat1. Briefly: Inhibition of proliferation of v-Ha-ras-transformed RAT1 cells on poly-(HEMA)-coated plates. Format: functional, cell-based. To be noted: Rattus norvegicus.
The target in assay [2] is Protein farnesyltransferase (Homo sapiens, UniProt P49354+P49356). Briefly: Inhibition of Farnesyltransferase. Type of assay: protein-complex assay.

As to `Cc1cc(NCc2cncn2Cc2ccc(C#N)cc2)ccc1S(=O)(=O)c1ccccc1`, the pIC50 in assay [1] was 9.00; in the assay with Rat1, 7.80.
Regarding `Cc1ncc(CNc2ccc(S(=O)(=O)c3ccccc3)cc2)n1Cc1ccc(C#N)cc1`, the results for the pIC50 (in assay [1]; in the assay on Rat1) were 7.03 and 6.75, respectively.
Regarding `c1ccc(Oc2ccc(NCc3cnc[nH]3)cc2)cc1`, the pIC50 in assay [1] was less than 4.00.
Same read-out and setting: next, `O=[N+]([O-])c1ccc(CN(Cc2c[nH]cn2)c2cccc(Oc3ccccc3)c2)cc1`: 5.49; `CCCCN(Cc1cncn1Cc1ccc(C#N)cc1)c1ccc(Oc2ccccc2)cc1`: 7.38; `CCCCN(Cc1cn(Cc2ccc(C#N)cc2)cn1)c1ccc(Oc2ccccc2)cc1`: less than 4.00.
Turning to `Cc1cc(N(Cc2cnc(C)n2Cc2ccc(C#N)cc2)CC2CC2)ccc1S(=O)(=O)c1ccccc1`, the results for the pIC50 (in assay [1]; with Rat1) were 8.10 and 6.96, respectively.
In assay [1], `N#Cc1ccc(Cn2cncc2CNc2ccc(Oc3ccccc3)cc2)cc1` gave a pIC50 of 5.89.
As for `O=C(O)c1cccc(Oc2cccc(N(Cc3cnc[nH]3)Cc3cnc[nH]3)c2)c1`, the pIC50 in assay [1] is 7.72.
For `N#Cc1ccc(Cn2cncc2CNc2ccc(S(=O)(=O)c3ccccc3)cc2)cc1`, the figures for the pIC50 (in assay [1]; in the assay on Rat1) were 9.15 and 7.51, respectively.
`N#Cc1ccc(CN(Cc2cncn2Cc2ccc(C#N)cc2)c2ccc(Oc3ccccc3)cc2)cc1` gave a pIC50 in assay [1] of 8.10.
The molecule `CCCCN(Cc1cnc[nH]1)c1ccc(Oc2ccccc2)cc1` had a pIC50 in assay [1] of less than 4.00.
For the molecule `N[C@H](CS)CNc1ccc(Oc2cccc(C(=O)O)c2)cc1`, the pIC50 in assay [1] was 9.40.
Molecule `Cc1cc(N(Cc2cnc(C)n2Cc2ccc(C#N)cc2)C(=O)C2CC2)ccc1S(=O)(=O)c1ccccc1` showed a pIC50 in assay [1] of 6.63.
For `Cc1cc(NCc2cnc(C)n2Cc2ccc(C#N)cc2)ccc1S(=O)(=O)c1ccccc1`, the pIC50 in assay [1] is 9.35; in the assay with Rat1, 7.55.
`N[C@@H](CS)CNc1cccc(Oc2cccc(C(=O)O)c2)c1`: the pIC50 in assay [1] was 9.60.
In assay [1], `O=[N+]([O-])c1ccc(CN(Cc2cnc[nH]2)c2ccc(Oc3ccccc3)cc2)cc1` showed a pIC50 of 6.00.
Still for that read-out and setting: next, `O=C(O)c1cccc(Oc2ccc(N(Cc3c[nH]cn3)Cc3c[nH]cn3)cc2)c1`: 8.59.
The same measure, in the same setting: then `Cc1ncc(CN(Cc2ccc(C#N)cc2)c2ccc(S(=O)(=O)c3ccccc3)cc2)n1Cc1ccc(C#N)cc1`, with 7.09.
In turn, `CSCC[C@H](NC(=O)[C@H](Cc1c[nH]c2ccccc12)NC(=O)[C@@H](NC(=O)[C@@H](N)CS)C(C)C)C(=O)O` showed a pIC50 in assay [2] of 6.28.
`CCCCN(Cc1cncn1Cc1ccc(C#N)cc1)c1ccc(Sc2ccccc2)cc1` gave a pIC50 in assay [1] of 6.85.
In assay [1], `N#Cc1ccc(Cn2cncc2CNc2ccc(C(=O)c3ccccc3)cc2)cc1` showed a pIC50 of 9.10.
